# Assay results from ChEMBL document CHEMBL1146507, “Antityrosinase principles and constituents of the petals of Crocus sativus” (J Nat Prod, 2004).
# Experiments:
# [1] = system: Radical scavenging activity; test: Antioxidant activity assessed as DPPH radical scavenging activity; format: functional
# [2] = system: Radical scavenging activity; test: Antioxidant activity assessed as DPPH radical scavenging activity at 0.1 mg/mL; format: functional
# Tyrosinase = molecular target: T1, Tyrosinase (Agaricus bisporus, UniProt O42713)
# T1 sequence (O42713 whole entry): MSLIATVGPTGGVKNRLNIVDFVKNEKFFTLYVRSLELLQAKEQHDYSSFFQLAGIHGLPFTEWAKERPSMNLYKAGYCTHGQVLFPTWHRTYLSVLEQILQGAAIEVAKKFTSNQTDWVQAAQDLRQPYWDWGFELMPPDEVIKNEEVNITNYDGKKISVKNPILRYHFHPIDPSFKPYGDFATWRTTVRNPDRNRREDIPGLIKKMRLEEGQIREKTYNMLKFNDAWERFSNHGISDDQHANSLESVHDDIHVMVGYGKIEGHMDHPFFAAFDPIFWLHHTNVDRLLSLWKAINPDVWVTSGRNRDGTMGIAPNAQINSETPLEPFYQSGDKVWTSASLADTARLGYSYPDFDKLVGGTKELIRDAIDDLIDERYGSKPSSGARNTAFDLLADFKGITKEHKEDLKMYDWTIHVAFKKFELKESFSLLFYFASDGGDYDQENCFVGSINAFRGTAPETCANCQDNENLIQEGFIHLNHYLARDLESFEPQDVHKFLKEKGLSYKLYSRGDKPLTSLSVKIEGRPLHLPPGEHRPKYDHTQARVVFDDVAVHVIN
# Description: Inhibition of mushroom tyrosinase by spectrophotometry
IC50 (Tyrosinase),Structure (SMILES),Activity [2],also measured
1.1 mM,CC1=CC(=O)CC(C)(C)C1O (configuration not stated),–,–
1 mM,CC1=C(CO)C(C)(C)CC(=O)C1O (configuration not stated) [CROCUSATIN L],–,–

# Continued, molecule first:
Structure (SMILES),IC50 (Tyrosinase),Activity [2],also measured
Cc1c(C)c2c(c(C)c1O)CC[C@@](C)(CCC[C@H](C)CCC[C@H](C)CCCC(C)C)O2 [ALPHA-TOCOPHEROL],–,–,IC50 [1]: 0.15 mg/mL
O=c1c(O)c(-c2ccc(O)cc2)oc2cc(O[C@@H]3O[C@H](CO)[C@@H](O)[C@H](O)[C@H]3O)cc(O)c12,–,91.2%,–
CC1=C(C=O)C(C)(C)[C@@H](O)[C@H](O)C1 [CROCUSATIN K],0.26 mM,–,–
O=c1c(O)c(-c2ccc(O)cc2)oc2cc(O)cc(O)c12,–,86.5%,–
O=C(O)c1ccc(O)c(O)c1,–,89.9%,–
